# Source: article PMC5011342, “A high throughput drug screening assay to identify compounds that promote oligodendrocyte differentiation using acutely dissociated and purified oligodendrocyte precursor cells” (BMC Research Notes, 2016)
# Where two headings read alike, the source gives them in different places.
# What was measured:
# expanded OPCs = test: cells; conditions: for viability at 0.1 µM / viability at 1 µM / viability at 10 µM: Rattus norvegicus, 72 h
# Method in brief: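 Expanded OPCs seeded at 10,000 cells/well in differentiation media, then exposed to NCC library compounds at 10, 1 and 0.1 µM (quadruplicate, 0.1% DMSO) for three days. Viability read as alamarBlue fluorescence (560/590 nm) after 4 h at 37 °C; tunicamycin 5 ng/ml served as toxicity control.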
# [1] = system: acutely dissociated and purified rat OPCs; test: Acute OL differentiation assay (MBP expression/cell, immunofluorescent image quantification); assay type: cell-based; conditions: sheet "All OLga data"; for activation at 2 µM / activation at 10 µM / activation at 0.4 µM: Rattus norvegicus
# Method in brief: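 Oligodendrocyte precursor cells were enriched from P6-P7 Sprague–Dawley rat brains by immunopanning (RAN-2 and GalC depletion, O4 selection), plated at 5000 cells/well in serum-free, mitogen-free differentiation media on PDL/laminin 96-well view plates, centrifuged at 200×g, and pre-incubated 1–2 h before test compounds were added in quadruplicate. On DIV4, cells were fixed, stained for MBP and DAPI, imaged automatically, and MBP expression per cell was quantified.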
# [2] = read-out: 0.1 µM (% DMSO), alamarBlue viability of expanded OPCs, compound at 0.1 µM, sheet All Tox data
# [3] = read-out: 1 µM (% DMSO), alamarBlue viability of expanded OPCs, compound at 1 µM, sheet All Tox data
# [4] = read-out: 10 µM (% DMSO), alamarBlue viability of expanded OPCs, compound at 10 µM, sheet All Tox data
# [5] = 2 uM test compound, relative to quetiapine, read-out: OL differentiation, 2 uM (% Quet)
# [6] = 10 uM test compound, relative to quetiapine, read-out: OL differentiation, 10 uM (% Quet)
# [7] = alamarBlue viability of expanded OPCs, compound at 0.1 µM, relative to DMSO control
# [8] = alamarBlue viability of expanded OPCs, compound at 1 µM, relative to DMSO control
# [9] = alamarBlue viability of expanded OPCs, compound at 10 µM, relative to DMSO control
# [10] = test compound at 2 uM, MBP expression relative to quetiapine, NCC library screen, read-out: 2 uM (% Quet)
# [11] = test compound at 10 uM, MBP expression relative to quetiapine, NCC library screen, read-out: 10 uM (% Quet)
# [12] = alamarBlue viability, NCC library compound at 0.1 µM, sheet "All Tox data"
# [13] = alamarBlue viability, NCC library compound at 1 µM, sheet "All Tox data"
# [14] = alamarBlue viability, NCC library compound at 10 µM, sheet "All Tox data"
# [15] = test compound at 2 uM, NCC library screen, relative to quetiapine
# [16] = read-out: 0.1 µM (% DMSO), alamarBlue viability, NCC library compound at 0.1 µM, sheet "All Tox data"
# [17] = read-out: 1 µM (% DMSO), alamarBlue viability, NCC library compound at 1 µM, sheet "All Tox data"
# [18] = read-out: 10 µM (% DMSO), alamarBlue viability, NCC library compound at 10 µM, sheet "All Tox data"
# [19] = test compound at 2 uM, NCC library screen, relative to quetiapine, read-out: 2 uM (% Quet)
# [20] = test compound at 10 uM, NCC library screen, relative to quetiapine, read-out: 10 uM (% Quet)
# [21] = 0.4 uM test compound, relative to quetiapine, read-out: OL differentiation, 0.4 uM (% Quet)
Compound,viability at 0.1 µM (expanded OPCs; [2]) [%],viability at 1 µM (expanded OPCs; [3]) [%],viability at 10 µM (expanded OPCs; [4]) [%],"activation at 2 µM [1, 5] [%]","activation at 10 µM [1, 6] [%]",0.1 µM (% DMSO) (expanded OPCs; [7]),1 µM (% DMSO) (expanded OPCs; [8]),10 µM (% DMSO) (expanded OPCs; [9]),"activation at 2 µM [1, 10] [%]","activation at 10 µM [1, 11] [%]",further results
CC(=O)O[C@]1(C(C)=O)CC[C@H]2[C@@H]3C=C(C)C4=CC(=O)CC[C@]4(C)[C@H]3CC[C@@]21C [Megestrol acetate],97.2,89.3,96.5,-21.6,-29.4,,,,,,
Cc1cnc(NC(=O)C2=C(O)c3ccccc3S(=O)(=O)N2C)s1 [Meloxicam],,,,,,93.1,94.6,86.1,-8.5,1.4,
CC1CCN(CCCC(=O)c2ccc(F)cc2)CC1.Cl [Melperone hydrochloride],,,,,,,,,,,"0.1 µM (% DMSO) (expanded OPCs; [12]): 105.5 % DMSO; 1 µM (% DMSO) (expanded OPCs; [13]): 130.9 % DMSO; 10 µM (% DMSO) (expanded OPCs; [14]): 151.7 % DMSO; 2 uM (% Quet) [1, 15]: 39.6 % Quet; 10 uM (% Quet) ([1]; test compound at 10 uM, NCC library screen, relative to quetiapine): 43.4 % Quet"
CC12CC3CC(C)(C1)CC(N)(C3)C2 [Memantine],97.8,93.2,59.7,-9.2,-28.3,93.3,84.1,67.0,-64.4,-100,
Cc1cccc(C)c1NC(=O)C1CCCCN1C (centres unmarked) [Mepivacaine],,,,,,,,,,,"viability at 0.1 µM (expanded OPCs; [16]): 89.5%; viability at 1 µM (expanded OPCs; [17]): 89.9%; viability at 10 µM (expanded OPCs; [18]): 79.7%; activation at 2 µM [1, 19]: -6.4%; activation at 10 µM [1, 20]: -0.9%"
Sc1ncnc2nc[nH]c12 [Mercaptopurine],,,,,,92.3,92.7,95.9,3.6,-5.6,
C[C@@H](O)[C@H]1C(=O)N2C(C(=O)O)=C(S[C@@H]3CN[C@H](C(=O)N(C)C)C3)[C@H](C)[C@H]12 [Meropenem],95.8,98.1,102,-4.2,2.8,,,,,,
Nc1ccc(O)c(C(=O)O)c1 [Mesalamine],86.2,92.2,87.2,-9.1,-0.34,,,,,,
O=S(=O)(O)CCS [Mesna],,,,,,92.5,91.3,100.9,-46,-38.6,
CN1CCCCC1CCN1c2ccccc2Sc2ccc([S+](C)[O-])cc21 (centres unmarked) [Mesoridazine],82.1,76.6,28.3,-3.1,,,,,,,"activation at 0.4 µM [1, 21]: 6.6%"
C[C@]12CCC(=O)C[C@@H]1CC[C@@H]1[C@@H]2CC[C@@]2(C)[C@H]1CC[C@]2(C)O [Mestanolone],102,94.1,120,0.8,-18,,,,,,
C#C[C@]1(O)CC[C@H]2[C@@H]3CCc4cc(OC)ccc4[C@H]3CC[C@@]21C [Mestranol],,,,92.5,-6.7,,,,,,viability at 0.1 µM (expanded OPCs; [16]): 102%; viability at 1 µM (expanded OPCs; [17]): 103%; viability at 10 µM (expanded OPCs; [18]): 114%
CC(C)NCC(O)c1cc(O)cc(O)c1 (centres unmarked) [Metaproterenol],,,,,,89.2,91.6,91.1,-0.7,3.5,
C[C@]12CC[C@H](O)CC1=CC[C@@H]1[C@@H]2CC[C@@]2(C)[C@H]1CC[C@]2(C)O [Methandriol],91.2,87.5,88,4.1,-0.6,,,,,,
CC(=O)/N=c1/sc(S(N)(=O)=O)nn1C [Methazolamide],,,,,,90.9,92.5,88.3,-29,-40,
Cn1cc[nH]c1=S [Methimazole],,,,,,88.3,90.9,85.4,-0.16,-20.4,
COc1ccccc1OCC(O)COC(N)=O (centres unmarked) [Methocarbamol],,,,,,89.9,92.3,88.1,,,"activation at 2 µM [1, 19]: 2.8%; activation at 10 µM [1, 20]: -3.7%"
CN(Cc1cnc2nc(N)nc(N)c2n1)c1ccc(C(=O)N[C@@H](CCC(=O)O)C(=O)O)cc1 [Methotrexate],77.9,68.5,52.8,4.9,,,,,,,"activation at 0.4 µM [1, 21]: -11%"
COc1c2occc2cc2ccc(=O)oc12 [Methoxsalen],,,,,,88.8,90.5,85.4,-13.9,-33.3,
C[C@](N)(Cc1ccc(O)c(O)c1)C(=O)O [Methyldopa],,,,,,100.4,86.9,63.4,,,"activation at 2 µM [1, 19]: -37.7%; activation at 10 µM [1, 20]: -93.8%"
CC(=O)OCC(=O)[C@@]1(O)CC[C@H]2[C@@H]3C[C@H](C)C4=CC(=O)C=C[C@]4(C)[C@H]3[C@@H](O)C[C@@]21C [Methylprednisolone acetate],,,,,,106.9,104.6,95.3,3.6,-59.5,
C[C@H]1C[C@@H]2[C@H]([C@@H](O)C[C@@]3(C)[C@H]2CC[C@]3(O)C(=O)CO)[C@@]2(C)C=CC(=O)C=C12 [Methylprednisolone],,,,,,115.7,111.5,102.3,-2.6,-32.2,
C[C@]12CCC(=O)C=C1CC[C@@H]1[C@@H]2CC[C@@]2(C)[C@H]1CC[C@]2(C)O [Methyltestosterone],103,112,102,-8.1,-36.5,,,,,,
CCN(CC)CCNC(=O)c1cc(Cl)c(N)cc1OC [Metoclopramide],,,,,,108.4,109.6,116.8,,,"activation at 2 µM [1, 19]: -21.4%; activation at 10 µM [1, 20]: -26.2%"
Cc1ncc([N+](=O)[O-])n1CCO [Metronidazole],84.6,88.7,79.3,0.09,24.8,,,,,,
CC(C)(C(=O)c1cccnc1)c1cccnc1 [Metyrapone],,,,,,90.5,94.0,93.4,9.9,-15,
CC[C@H](C)C(=O)O[C@H]1CCC=C2C=C[C@H](C)[C@H](CC[C@@H]3C[C@@H](O)CC(=O)O3)[C@H]21 [Mevistatin],,,,,,,,,,,"0.1 µM (% DMSO) (expanded OPCs; [12]): 135.8 % DMSO; 1 µM (% DMSO) (expanded OPCs; [13]): 96.3 % DMSO; 10 µM (% DMSO) (expanded OPCs; [14]): 54.8 % DMSO; 0.4 uM (% Quet) ([1]; test compound at 0.4 uM, NCC library screen, relative to quetiapine): -87.3 % Quet; 2 uM (% Quet) [1, 15]: -111.9 % Quet"
Cc1cccc(C)c1OCC(C)N (centres unmarked) [Mexiletine],,,,,,91.7,86.5,72.1,-15.2,-7.4,
Clc1ccc(COC(Cn2ccnc2)c2ccc(Cl)cc2Cl)c(Cl)c1 (centres unmarked) [Miconazole],,,,,,91.9,108.6,9.2,,,"activation at 0.4 µM ([1]; test compound at 0.4 uM, NCC library screen, relative to quetiapine, read-out: 0.4 uM (% Quet)): 43.2%"
